From PubChem BioAssay AID200 (DTP/NCI, 2004)
Where “and” joins values, the source holds several entries; their conditions need not be identical. Identical values can stand only once. Toxic doses and inconclusive results are not listed.

Tested on: B6C3F1 mice, B16 melanoma ip, median survival T/C
Test: NCI In Vivo Anticancer Drug Screen. Data for tumor model B16 Melanoma (intraperitoneal) in B6C3F1 mice
Conditions: endpoint: median survival time, higher = longer survival
Method in brief: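 Values are T/C ratios: the measurement in treated animals divided by that in vehicle-treated controls, using survival or tumor size in mice carrying transplantable tumors.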

[1] = dose: 25.0 mg/kg/injection, schedule: Q01DX009 (ip), vehicle: saline with Tween-80
[2] = dose: 50.0 mg/kg/injection, schedule: Q01DX009 (ip), vehicle: saline with Tween-80
[3] = dose: 12.5 mg/kg/injection, schedule: Q01DX009 (ip), vehicle: saline with Tween-80
[4] = dose: 25.0 mg/kg/injection, schedule: Q01DX009 (ip), vehicle: Klucel (hydroxypropylcellulose) (HPC)
[5] = dose: 50.0 mg/kg/injection, schedule: Q01DX009 (ip), vehicle: Klucel (hydroxypropylcellulose) (HPC)

With `ClC1(Cl)Cc2ccccc21` the T/C (dose: 18.0 mg/kg/injection, schedule: Q01DX009 (ip), vehicle: saline with Tween-80) was 105 % of control, the T/C [1] was 122 % of control and the T/C (dose: 30.0 mg/kg/injection, schedule: Q01DX009 (ip), vehicle: saline with Tween-80) was 107 % of control. For the same compound, the T/C [2] was 99 % of control, the T/C (dose: 83.33 mg/kg/injection, schedule: Q01DX009 (ip), vehicle: saline with Tween-80) was 103 % of control and the T/C (dose: 138.88 mg/kg/injection, schedule: Q01DX009 (ip), vehicle: saline with Tween-80) was 100 % of control.

`C=C(C)C(=O)OCC12CCC(C)=CC1OC1C(O)C(OC(=O)CCl)C2(C)C12CO2` (stereo unspecified) was tested, and the T/C (dose: 0.5 mg/kg/injection, schedule: Q01DX009 (ip), vehicle: water) was 163 % of control, the T/C (dose: 1.0 mg/kg/injection, schedule: Q01DX009 (ip), vehicle: water) was 163 % of control and the T/C (dose: 2.0 mg/kg/injection, schedule: Q01DX009 (ip), vehicle: water) was 159 % of control.

With `CC(C)(C)OC(=O)NC(CCCCNC(=O)OCc1ccccc1)C(=O)O` (stereo unspecified) the T/C (dose: 25.0 mg/kg/injection, schedule: Q01DX009 (ip), vehicle: distilled water + Tween-80 + alcohol) was 111 % of control and the T/C (dose: 50.0 mg/kg/injection, schedule: Q01DX009 (ip), vehicle: distilled water + Tween-80 + alcohol) was 96 % of control.

With `CO[C@H]1Nc2c(ccc(C)c2O)C(=O)N2C=C(/C=C/C(N)=O)C[C@@H]12` the T/C (dose: 0.03 mg/kg/injection, schedule: Q01DX009 (ip), vehicle: saline with Tween-80) was 111 % of control, the T/C (dose: 0.05 mg/kg/injection, schedule: Q04DX003 (ip), vehicle: DMSO) was 92 % of control and the T/C (dose: 0.06 mg/kg/injection, schedule: Q01DX009 (ip), vehicle: saline with Tween-80) was 104 % of control. For the same compound, the T/C (dose: 0.1 mg/kg/injection, schedule: Q04DX003 (ip), vehicle: DMSO) was 105 % of control, the T/C (dose: 0.12 mg/kg/injection, schedule: Q01DX009 (ip), vehicle: saline with Tween-80) was 102 % of control and the T/C (dose: 0.2 mg/kg/injection, schedule: Q04DX003 (ip), vehicle: DMSO) was 109 % of control. The T/C (dose: 0.25 mg/kg/injection, schedule: Q01DX009 (ip), vehicle: saline with Tween-80) was 122 % of control and the T/C (dose: 0.4 mg/kg/injection, schedule: Q04DX003 (ip), vehicle: DMSO) was 104 % of control.

With `O=C1NC(c2ccccc2)N=C2Oc3ccccc3C=C12` (stereo unspecified) the T/C (dose: 1.56 mg/kg/injection, schedule: Q01DX009 (ip), vehicle: saline with Tween-80) was 101 % of control, the T/C (dose: 3.12 mg/kg/injection, schedule: Q01DX009 (ip), vehicle: saline with Tween-80) was 103 % of control and the T/C (dose: 3.13 mg/kg/injection, schedule: Q01DX009 (ip), vehicle: saline with Tween-80) was 97 % of control. The T/C (dose: 6.25 mg/kg/injection, schedule: Q01DX009 (ip), vehicle: saline with Tween-80) was 118 % of control and 124 % of control, the T/C [3] was 116 % of control and 122 % of control and the T/C [2] was 113 % of control.

For `O=C(Nc1ccc([N+](=O)[O-])cc1)Nc1nncs1`, the T/C (dose: 25.0 mg/kg/injection, schedule: Q01DX009 (ip), vehicle: distilled water + Tween-80) was 122 % of control and 103 % of control, the T/C (dose: 50.0 mg/kg/injection, schedule: Q01DX009 (ip), vehicle: distilled water + Tween-80) was 112 % of control and 113 % of control and the T/C (dose: 200.0 mg/kg/injection, schedule: Q01DX009 (ip), vehicle: distilled water + Tween-80) was 120 % of control.

`C/C(=N\NC(=O)c1ccccc1O)c1cccc(/C(C)=N/NC(=O)c2ccccc2O)n1` was tested, and the T/C (dose: 3.0 mg/kg/injection, schedule: Q01DX009 (ip), vehicle: saline) was 102 % of control and the T/C (dose: 6.0 mg/kg/injection, schedule: Q01DX009 (ip), vehicle: saline) was 96 % of control.

For `c1ccc2c(NCCCCCCNc3c4ccccc4nc4ccccc34)c3ccccc3nc2c1`, the T/C (dose: 0.62 mg/kg/injection, schedule: Q01DX009 (ip), vehicle: Klucel (hydroxypropylcellulose) (HPC)) was 116 % of control, the T/C (dose: 1.25 mg/kg/injection, schedule: Q01DX009 (ip), vehicle: water) was 111 % of control and 116 % of control and the T/C (dose: 1.58 mg/kg/injection, schedule: Q01DX009 (ip), vehicle: Klucel (hydroxypropylcellulose) (HPC)) was 154 % of control. For the same compound, the T/C (dose: 2.37 mg/kg/injection, schedule: Q01DX009 (ip), vehicle: Klucel (hydroxypropylcellulose) (HPC)) was 179 % of control, the T/C (dose: 2.5 mg/kg/injection, schedule: Q01DX009 (ip), vehicle: Klucel (hydroxypropylcellulose) (HPC)) was 151 % of control and the T/C (dose: 2.5 mg/kg/injection, schedule: Q01DX009 (ip), vehicle: water) was 112 % of control and 122 % of control. The T/C (dose: 5.0 mg/kg/injection, schedule: Q01DX009 (ip), vehicle: Klucel (hydroxypropylcellulose) (HPC)) was 189 % of control, the T/C (dose: 5.0 mg/kg/injection, schedule: Q01DX009 (ip), vehicle: water) was 123 % of control and the T/C (dose: 5.33 mg/kg/injection, schedule: Q01DX009 (ip), vehicle: Klucel (hydroxypropylcellulose) (HPC)) was 213 % of control. The T/C (dose: 8.0 mg/kg/injection, schedule: Q01DX009 (ip), vehicle: Klucel (hydroxypropylcellulose) (HPC)) was 199 % of control, the T/C (dose: 10.0 mg/kg/injection, schedule: Q01DX009 (ip), vehicle: Klucel (hydroxypropylcellulose) (HPC)) was 200 % of control and the T/C (dose: 10.0 mg/kg/injection, schedule: Q01DX009 (ip), vehicle: water) was 153 % of control. For the same compound, the T/C (dose: 12.0 mg/kg/injection, schedule: Q01DX009 (ip), vehicle: Klucel (hydroxypropylcellulose) (HPC)) was 190 % of control, the T/C (dose: 20.0 mg/kg/injection, schedule: Q01DX009 (ip), vehicle: Klucel (hydroxypropylcellulose) (HPC)) was 206 % of control and the T/C (dose: 20.0 mg/kg/injection, schedule: Q01DX009 (ip), vehicle: water) was 162 % of control.

With `CCOC(=O)C(Cc1ccc(O)cc1)NC(=O)c1ccccc1` (stereo unspecified) the T/C (dose: 40.0 mg/kg/injection, schedule: Q01DX009 (ip), vehicle: saline with Tween-80) was 116 % of control, the T/C (dose: 80.0 mg/kg/injection, schedule: Q01DX009 (ip), vehicle: saline with Tween-80) was 96 % of control and the T/C (dose: 160.0 mg/kg/injection, schedule: Q01DX009 (ip), vehicle: saline with Tween-80) was 112 % of control. The T/C (dose: 320.0 mg/kg/injection, schedule: Q01DX009 (ip), vehicle: saline with Tween-80) was 96 % of control and the T/C (dose: 640.0 mg/kg/injection, schedule: Q01DX009 (ip), vehicle: saline with Tween-80) was 101 % of control.

For `COC(=O)Nc1nc2ccc(SC)cc2c(=O)[nH]1`, the T/C [4] was 96 % of control, the T/C [5] was 101 % of control and the T/C (dose: 200.0 mg/kg/injection, schedule: Q01DX009 (ip), vehicle: Klucel (hydroxypropylcellulose) (HPC)) was 114 % of control.

`O=[N+]([O-])O.O=[N+]([O-])O.[NH-]C1CCCCC1[NH-].[Pt+2]` (stereo unspecified) was tested, and the T/C (dose: 0.25 mg/kg/injection, schedule: Q01DX009 (ip), vehicle: other) was 123 % of control and the T/C (dose: 1.0 mg/kg/injection, schedule: Q01DX009 (ip), vehicle: other) was 163 % of control.

With `C=C1C(=O)OC2/C=C(\CO)CC/C=C(\CO)CC(OC(=O)C(C)C)C12` (stereo unspecified) the T/C (dose: 3.75 mg/kg/injection, schedule: Q01DX009 (ip), vehicle: Klucel (hydroxypropylcellulose) (HPC)) was 103 % of control.

With `CN(C)N=Nc1ccc(C(N)=O)cc1` the T/C (dose: 4.5 mg/kg/injection, schedule: Q01DX009 (ip), vehicle: saline with Tween-80) was 110 % of control, the T/C (dose: 7.5 mg/kg/injection, schedule: Q01DX009 (ip), vehicle: saline with Tween-80) was 114 % of control and the T/C (dose: 8.0 mg/kg/injection, schedule: Q01DX009 (ip), vehicle: saline with Tween-80) was 107 % of control. The T/C [3] was 119 % of control and 120 % of control, the T/C (dose: 13.0 mg/kg/injection, schedule: Q01DX009 (ip), vehicle: saline with Tween-80) was 101 % of control and the T/C (dose: 20.83 mg/kg/injection, schedule: Q01DX009 (ip), vehicle: saline with Tween-80) was 114 % of control and 288 % of control. The T/C (dose: 21.0 mg/kg/injection, schedule: Q01DX009 (ip), vehicle: saline with Tween-80) was 118 % of control, the T/C (dose: 34.72 mg/kg/injection, schedule: Q01DX009 (ip), vehicle: saline with Tween-80) was 110 % of control and 115 % of control and the T/C (dose: 35.0 mg/kg/injection, schedule: Q01DX009 (ip), vehicle: saline with Tween-80) was 111 % of control. The T/C (dose: 57.86 mg/kg/injection, schedule: Q01DX009 (ip), vehicle: saline with Tween-80) was 124 % of control, the T/C (dose: 58.0 mg/kg/injection, schedule: Q01DX009 (ip), vehicle: saline with Tween-80) was 118 % of control and the T/C (dose: 96.0 mg/kg/injection, schedule: Q01DX009 (ip), vehicle: saline with Tween-80) was 117 % of control.

In the case of `C=C(C)[C@@H]1CC[C@]2(C(=O)OC)CC[C@]3(C)[C@H](CC[C@@H]4[C@@]5(C)CC[C@H](O)C(C)(C)[C@@H]5CC[C@]43C)[C@@H]12`, the T/C [4] is reported as 107 % of control and the T/C [5] is reported as 86 % of control.

In the case of `Cc1ccc(NC(=O)Oc2ccc(Br)cc2Br)c([N+](=O)[O-])c1`, the T/C [3] is reported as 105 % of control, the T/C [1] is reported as 104 % of control and the T/C [2] is reported as 105 % of control. For the same compound, the T/C (dose: 100.0 mg/kg/injection, schedule: Q01DX009 (ip), vehicle: saline with Tween-80) was 101 % of control, the T/C (dose: 200.0 mg/kg/injection, schedule: Q01DX009 (ip), vehicle: saline with Tween-80) was 103 % of control and the T/C (dose: 400.0 mg/kg/injection, schedule: Q01DX009 (ip), vehicle: saline with Tween-80) was 107 % of control.
